From patent publication US20210045385A1, “PYRIDAZINONE-SUBSTITUTED KETOXIMES AS HERBICIDES” (FMC Corporation, priority 2018, published 2021)

Assays:
Type in all cases: in vivo
[1] = tested on: ducksalad (Heteranhera limosa); experiment: Test B flooded paddy test, visual plant response rating; conditions: 250 g ai/ha, Flood, applied to paddy water, 2-leaf stage, evaluated after 13 to 15 days
Procedure, shortened: (§1)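 2-leaf plants; pots flooded 3 cm over soil surface; compound dosed straight into the floodwater; depth kept constant; greenhouse 13–15 d; visual rating vs. untreated controls.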

[2] = tested on: barnyardgrass (Echinochloa crus-galli); experiment: as above; conditions: 250 g ai/ha, Flood, applied to paddy water, 2-leaf stage, evaluated after 13 to 15 days
Procedure, shortened: as §1

rice (Oryza sativa) = experiment: as above; conditions: 250 g ai/ha, Flood, applied to paddy water, 2-leaf stage, evaluated after 13 to 15 days
Procedure, shortened: as §1

[3] = tested on: sedge, umbrella (small-flower umbrella sedge, Cyperus difformis); experiment: as above; conditions: 250 g ai/ha, Flood, applied to paddy water, 2-leaf stage, evaluated after 13 to 15 days
Procedure, shortened: as §1

[4] = tested on: barnyardgrass (Echinochloa crus-galli); experiment: Test A preemergence, visual plant response rating
Procedure, shortened: (§2)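 Greenhouse pot test in loam–sand soil mix: compound in a surfactant-containing non-phytotoxic solvent applied preemergence (directed soil spray) or postemergence (one- to two-leaf plants, 2–10 cm). Injury scored visually after ~10 days, 0–100.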

[5] = tested on: pigweed (Amaranthus retroflexus); experiment: Test A preemergence, visual plant response rating
Procedure, shortened: as §2

[6] = tested on: foxtail, giant (giant foxtail, Setaria faberii); experiment: Test A preemergence, visual plant response rating
Procedure, shortened: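 Compared with untreated controls, treated plants received a visual injury score on a 0–100 scale around 10 days after application. The compound, in a non-phytotoxic solvent with surfactant, was given as a preemergence soil spray or postemergence at the one- to two-leaf stage.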

kochia (Kochia scoparia) [7] = experiment: Test A preemergence, visual plant response rating
Procedure, shortened: as §2

[8] = tested on: ragweed (common ragweed, Ambrosia elatior); experiment: Test A preemergence, visual plant response rating
Procedure, shortened: as §2

[9] = tested on: Italian ryegrass (Lolium multiflorum); experiment: Test A preemergence, visual plant response rating
Procedure, shortened: as §2

[10] = tested on: barnyardgrass (Echinochloa crus-galli); experiment: Test A postemergence, visual plant response rating
Procedure, shortened: as §2

[11] = tested on: galium (catchweed bedstraw, Galium aparine); experiment: Test A postemergence, visual plant response rating
Procedure, shortened: as §2

[12] = tested on: blackgrass (Alopecurus myosuroides); experiment: Test A postemergence, visual plant response rating
Procedure, shortened: as §2

[13] = tested on: wheat (Triticum aestivum); experiment: Test A postemergence, visual plant response rating
Procedure, shortened: as §2

[14] = tested on: pigweed (Amaranthus retroflexus); experiment: Test A postemergence, visual plant response rating
Procedure, shortened: as §2

[15] = tested on: foxtail, giant (giant foxtail, Setaria faberii); experiment: Test A postemergence, visual plant response rating
Procedure, shortened: as §2

corn (Zea mays) = experiment: Test A postemergence, visual plant response rating
Procedure, shortened: as §2

kochia (Kochia scoparia) [16] = experiment: Test A postemergence, visual plant response rating
Procedure, shortened: as §2

[17] = tested on: ragweed (common ragweed, Ambrosia elatior); experiment: Test A postemergence, visual plant response rating
Procedure, shortened: as §2

[18] = tested on: Italian ryegrass (Lolium multiflorum); experiment: Test A postemergence, visual plant response rating
Procedure, shortened: as §2

[19] = 125 g ai/ha, preemergence, 0 to 100 scale, 0 no effect, 100 complete control
[20] = 500 g ai/ha Preemergence, approx. 10 days
[21] = 500 g ai/ha, postemergence, 0 is no effect, 100 is complete control
[22] = Postemergence, 125 g ai/ha, 0 to 100 scale (0 no effect, 100 complete control)

## CON=C(c1cc(C)ccc1Cl)c1c(O)c(C)nn(C)c1=O [Compound 67]
[1]
  Plant response rating, Ducksalad (0 to 100 scale, 0 is no effect, 100 is complete control): 0
[2]
  Plant response rating, Barnyardgrass (0 to 100 scale, 0 is no effect, 100 is complete control): 0
Rice (Oryza sativa)
  Plant response rating, Rice (0 to 100 scale, 0 is no effect, 100 is complete control): 0
[3]
  Plant response rating, Sedge, Umbrella (0 to 100 scale, 0 is no effect, 100 is complete control): 0
[4]; [19]
  Barnyardgrass plant response rating: 0
[4]; [20]
  Barnyardgrass plant response rating (0 to 100 scale): 0
[5]; [19]
  Pigweed plant response rating: 0
[5]; [20]
  Pigweed plant response rating (0 to 100 scale): 0
[6]; [19]
  Foxtail, Giant plant response rating: 0
[6]; [20]
  Foxtail, Giant plant response rating (0 to 100 scale): 0
Kochia (Kochia scoparia) [7]; [19]
  Kochia plant response rating: 0
Kochia (Kochia scoparia) [7]; [20]
  Kochia plant response rating (0 to 100 scale): 10
[8]; [19]
  Ragweed plant response rating: 10
[8]; [20]
  Ragweed plant response rating (0 to 100 scale): 10
[9]; [19]
  Ryegrass, Italian plant response rating: 0
[9]; [20]
  Ryegrass, Italian plant response rating (0 to 100 scale): 10
[10]; [21]
  Barnyardgrass plant response rating (0 to 100 scale): 0
[10]; [22]
  Barnyardgrass plant response rating: 0
[11]; [21]
  Galium plant response rating (0 to 100 scale): 80
[11]; [22]
  Galium plant response rating: 70
[12]; [21]
  Blackgrass plant response rating (0 to 100 scale): 30
[12]; [22]
  Blackgrass plant response rating: 0
[13]; [21]
  Wheat plant response rating (0 to 100 scale): 0
[13]; [22]
  Wheat plant response rating: 0
[14]; [21]
  Pigweed plant response rating (0 to 100 scale): 30
[14]; [22]
  Pigweed plant response rating: 0
[15]; [21]
  Foxtail, Giant plant response rating (0 to 100 scale): 10
[15]; [22]
  Foxtail, Giant plant response rating: 0
Corn (Zea mays); [21]
  Corn plant response rating (0 to 100 scale): 0
Corn (Zea mays); [22]
  Corn plant response rating: 0
Kochia (Kochia scoparia) [16]; [21]
  Kochia plant response rating (0 to 100 scale): 20
Kochia (Kochia scoparia) [16]; [22]
  Kochia plant response rating: 20
[17]; [21]
  Ragweed plant response rating (0 to 100 scale): 70
[17]; [22]
  Ragweed plant response rating: 50
[18]; [21]
  Ryegrass, Italian plant response rating (0 to 100 scale): 20
[18]; [22]
  Ryegrass, Italian plant response rating: 10
